The nature of this data set: gradient 5% acetonitrile 3 min, to 50% in 2 min, to 85% in 15 min, held 3 min, 100 µL/min. The note with it: column: Zorbax Extend-C18 2.1 x 50 mm; eluents: water / acetonitrile, 0.1% formic acid. Put shortly:
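A Zorbax Extend-C18 column (2.1 × 50 mm, 1.8 μm) run at 100 μL/min with water and acetonitrile, both containing 0.1% formic acid, separated mixtures of ~100 pure standards. The HPLC was coupled to a quadrupole time-of-flight mass spectrometer operated in positive and negative ionization mode, with dead and dwell volumes of 40 μL and 900 μL. Each retention time was taken from a computationally picked adduct peak that was then manually inspected.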
On to `O=C(NCCC1CCN(S(=O)(=O)c2ccccc2)CC1)NC1CCCCC1`, for which the RP-LC retention time came to 865 s.
`O=C(c1ccc(Cl)s1)N1CCC(N(C(=O)C2CC2)C2CCOCC2)CC1`: the RP-LC retention time came out at 773 s.
Consider `Cc1cc(-c2nnc(C3CC3)o2)c(C)n1CC(=O)NCc1ccccc1Cl`, for which the RP-LC retention time turned out to be 769 s.
`CCNc1cc(N2CCC(CCC(=O)O)CC2)ncn1` came in with an RP-LC retention time of 576 s.
Consider `CC(=O)Nc1cccc(NC(=O)C2CC(=O)N(c3n[nH]c4cccc(F)c34)C2)c1` (stereo not given), for which the RP-LC retention time is 644 s.
`CCCCNC(=O)C1CCCN(C(=O)Nc2ccc(S(=O)(=O)N(CC)CC)s2)C1` (stereo not given): the RP-LC retention time was found to be 849 s.
`O=C1NC2(CCN(C(=O)c3ccc4c(c3)OCO4)CC2)Nc2c(Cl)cccc21` gave an RP-LC retention time of 678 s.
With `CCOc1ccccc1-c1noc(-c2nnn3c2COC(c2ccc(Cl)cc2)C3)n1` (stereo not given) the figure was 1150 s; with `Cc1ccc(Nc2ncccc2S(N)(=O)=O)cc1F`, 863 s.
As to `COc1ccc(S(=O)(=O)N2CCCC2C(N)=O)cc1` (stereo not given), the RP-LC retention time came to 593 s.
In turn, `COc1cccc(NC(=O)NCCc2cn(C)c3ncccc23)c1` had an RP-LC retention time of 662 s.
The compound `O=C(NCCCN1CCCC1)c1cccc(N2CCNC(c3ccccc3)C2)n1` (stereo not given) yielded an RP-LC retention time of 694 s.
With `Cc1nc(-c2cc3ccccc3nc2N2CCN(c3ccccc3F)CC2)no1` the figure was 711 s.
In turn, `Cc1cc(C)n(CC(=O)N[C@@H]2CN(S(C)(=O)=O)C[C@H]2CN(C)C)n1` displayed an RP-LC retention time of 564 s.
With `COC1CCC12CCN(C(=O)C1CC1)CC2` (stereo not given) the figure was 710 s.
As to `CCc1ccc(-c2cc(C(=O)N3CCCN(c4ccc(=O)n(-c5ccc(C)cc5)n4)CC3)[nH]n2)cc1`, the RP-LC retention time worked out at 873 s.
`O=C(/C=C/c1ccccc1)Nc1cccc(-c2nnc3n2CCCC3)c1` displayed an RP-LC retention time of 708 s.
In turn, `COC(=O)c1ccc(CSc2nnc(NC(=O)c3cc(C)on3)s2)o1` came in with an RP-LC retention time of 737 s.
Turning to `O=C(NCc1ccccc1F)C1CCN(c2cncnc2N2CCOCC2)CC1`, the RP-LC retention time worked out at 611 s.
With `N#Cc1ccccc1NC(=O)C(=O)NCc1ccccn1` the figure was 572 s.
With `Cc1nn(-c2ccc(-c3ccccc3)nn2)c(C)c1S(=O)(=O)Nc1ccc2c(c1)OCCO2` the figure was 978 s.
As to `CCCNC(=O)N1CCC(c2nc(-c3ccncc3)no2)C1` (stereo not given), the RP-LC retention time turned out to be 604 s.
For `CCc1csc(-c2ccc(N3CCN(C(=O)c4nn(C)c5ccccc45)CC3)nc2)n1`, the RP-LC retention time was determined as 966 s.
Consider `CNC(=O)c1ccc2c(c1)CCCN2S(=O)(=O)c1ccccc1`, for which the RP-LC retention time stood at 769 s.
In turn, `CCOC(=O)C1CCN(c2cc3c(cc2NC(=O)C2CC2)n(C)c(=O)c(=O)n3C)CC1` displayed an RP-LC retention time of 758 s.
In turn, `Cn1cnc2cc(CNC(=O)c3cccs3)ccc21` gave an RP-LC retention time of 571 s.
With `Cn1c(SCCC(=O)O)nnc1-c1cccnc1` the figure was 515 s; with `CCCCCCCNCc1ccc2c(c1)n(C)c(=O)n2C`, 641 s; with `COc1cccc(N2C=C(C(=O)N3CCCC3)S(=O)(=O)c3ccccc32)c1`, 770 s.
`COc1ccc(-c2csc(Nc3ccc(C(=O)O)cc3)n2)cc1`: the RP-LC retention time was 876 s.
`O=C(NCc1csc(-c2ccccc2)n1)C1CCN(C(=O)c2ccc(F)c(F)c2)CC1` returned an RP-LC retention time of 814 s.
With `COc1ccc(NCc2ccc3c(c2)n(C)c(=O)n3C)cc1Cl` the figure was 1150 s; with `COc1ccc(NS(=O)(=O)c2cccc(-c3nc(-c4ccccc4)no3)c2)cc1OC`, 1060 s; with `CC(=O)N1CCCSc2ccc(S(=O)(=O)N3CCCC(CN4CCc5ccccc5C4)C3)cc21` (stereo not given), 687 s.
Compound `Cc1ccc(-c2cc(NC(=O)Cc3ccccc3C)on2)s1` registered an RP-LC retention time of 1030 s.
Compound `COc1ccc(C(=O)N2CC(n3cc(COCC4CC4)nn3)C2)c(OC)n1` yielded an RP-LC retention time of 718 s.
In turn, `Cc1oc(-c2ccc(C(=O)N3CCN(C)CC3)cc2)nc1CS(=O)(=O)c1ccccc1` had an RP-LC retention time of 608 s.
With `CCc1noc(NC(C)=O)c1-c1ccc(C)c(S(=O)(=O)NCc2cccs2)c1`, the RP-LC retention time turned out to be 783 s.
With `CCN(C(=O)CSC1=Nc2ccccc2NC(CC(=O)OC)=C1)c1cccc(C)c1` the figure was 1160 s; with `CSc1cccc(NC(=O)CSc2nccc(N3CCN(c4cc(C)ccc4C)CC3)n2)c1`, 938 s; with `CCC1CCCCN1Cc1nc(Cn2ccn3nc(-c4ccc(OC)cc4)cc3c2=O)no1` (stereo not given), 679 s.
For `O=C(NCCNC(=O)[C@@H]1CCCN1C(=O)c1ccc(F)cc1)c1ccc(F)cc1`, the RP-LC retention time stood at 656 s.
Take `Cc1ccc(Cn2c(N3CCCC(C(=O)Nc4ccc(F)cc4)C3)nc3ccsc3c2=O)cc1` (stereo not given): the RP-LC retention time stood at 1060 s.
With `Cc1ccccc1CNC(=O)Cn1c(=O)c2nnc(C)n2c2ncccc21` the figure was 672 s.
With `CCN1C(SCC(=O)N(C)c2ccccc2)=NS(=O)(=O)c2ccccc21` the figure was 1000 s; with `Cc1ccc(Sc2nccnc2N2CCCC(C(=O)N3CCN(c4ccccc4C)CC3)C2)cc1` (stereo not given), 1330 s.
Turning to `COc1ccc2c(c1)-c1nc(NC(=O)c3ccccc3Cl)sc1CC2`, the RP-LC retention time was 1110 s.
In turn, `O=C(NCCC1=CCCCC1)C(=O)NCC1CCN(S(=O)(=O)C2CC2)CC1` came in with an RP-LC retention time of 826 s.
With `N#Cc1ccc(NC(=O)Cc2cn3cc(F)ccc3n2)cc1`, the RP-LC retention time was found to be 601 s.
For the compound `COc1nn(C)cc1C(=O)N1CCc2nc(NC(=O)c3ccco3)sc2C1`, the RP-LC retention time was determined as 599 s.
Consider `CCC(=O)Nc1ccc(OCc2cc(C(=O)NC3CCCCC3)no2)cc1`, for which the RP-LC retention time stood at 840 s.
On to `CCOC(=O)c1c(NCc2ccc(F)cc2)c2ccc(Cl)cc2[nH]c1=O`, for which the RP-LC retention time came out at 858 s.
On to `COc1ccc(NC(=O)c2c(O)c3cccnc3n(-c3ccc(F)cc3)c2=O)cc1Cl`, for which the RP-LC retention time was determined as 1250 s.
`O=C(Nc1cccc([N+](=O)[O-])c1)C(=O)N1CCN(c2cccc(Cl)c2)CC1` displayed an RP-LC retention time of 950 s.
With `Cc1ccc2[nH]cc(CCN3CC(C(=O)NCCN4CCOCC4)CC3=O)c2c1` (stereo not given) the figure was 602 s; with `Cc1sc(NC(=O)c2ccccc2Br)nc1-c1ccc2c(c1)NC(=O)CO2`, 859 s; with `COCCn1c(=O)c2cc(C(=O)N3CCCC3)nn2c2ccccc21`, 760 s.
With `COC(=O)c1ccccc1S(=O)(=O)N1CCN(Cc2nnnn2-c2ccccc2)CC1` the figure was 812 s.
With `CCCN1C(=O)CN(S(=O)(=O)c2ccccc2)CC1(C)C(=O)NCc1ccc(F)cc1` (stereo not given) the figure was 827 s.
Compound `O=c1c(=O)n(-c2ccccc2)ccn1Cc1nc(-c2ccccc2)no1` showed an RP-LC retention time of 777 s.
With `CCCOc1nc2ccccc2nc1N1CCCC(C(=O)Nc2ccccc2CC)C1` (stereo not given) the figure was 1320 s; with `O=C(C1CCN(c2cncnc2N2CCOCC2)CC1)N1CCN(c2ccccc2)CC1`, 629 s; with `NS(=O)(=O)c1ccc(CCNC(=O)Cc2cc(-c3cccs3)on2)cc1`, 669 s.
For `COCCN1CC2(CCN(S(=O)(=O)c3cccc(Cl)c3)CC2)C1c1ccncc1` (stereo not given), the RP-LC retention time stood at 631 s.
For the compound `Cc1ccc(N2CCN(Cc3nc(-c4ccc(N5CCCC(C)C5)nc4)no3)CC2)cc1` (stereo not given), the RP-LC retention time is 1060 s.
The compound `CC1CCc2nc3ncn(CC(=O)Nc4cccc(Br)c4)c(=O)c3cc2C1` (stereo not given) had an RP-LC retention time of 854 s.
In turn, `COc1ccc(Cl)cc1C(=O)N1CCN(c2cc(-c3cccs3)[nH]n2)CC1` showed an RP-LC retention time of 812 s.
`O=C(CN1C(=O)CCCc2cc(S(=O)(=O)N3CCCC3)ccc21)Nc1cccc(Cl)c1` returned an RP-LC retention time of 890 s.
As to `O=C(Cn1nc2c3cc(-c4ccccc4)nn3ccn2c1=O)N1CCCc2ccccc21`, the RP-LC retention time was 940 s.
Regarding `Cc1cnc(C)n1C1CCN(S(=O)(=O)c2ccccc2)CC1`, the RP-LC retention time amounted to 634 s.
With `Cc1c(Cl)cccc1NC(=O)CN1CCc2[nH]c3c(C)cc(F)cc3c(=O)c2C1` the figure was 662 s.
`CCc1onc(C)c1C1CCCN1C(=O)NCc1ccc(F)cc1` (stereo not given) came in with an RP-LC retention time of 766 s.
Compound `Cc1nnc2ccc(N3CCC(C(=O)N4CCN(c5ncccn5)CC4)CC3)nn12` returned an RP-LC retention time of 646 s.
With `CCNC(=O)Nc1ccc2c(c1)CN(S(=O)(=O)CC)CCO2` the figure was 660 s.
In turn, `COc1ccc(C(C)NC(=O)Cc2c[nH]c3ncccc23)cc1OC` (stereo not given) displayed an RP-LC retention time of 664 s.
`COc1cccc(NC(=O)N2CCOc3ccc(C)cc32)c1` showed an RP-LC retention time of 968 s.
With `CC(C)C(=O)NCC(c1ccc(N(C)C)cc1)N1CCN(c2ccc(F)cc2)CC1` (stereo not given) the figure was 592 s; with `CCN1CCN(C(=O)c2ccc(-c3ccc4c(c3)CCN4C(C)=O)cc2)CC1`, 607 s; with `CCCNC(=O)c1sc(Nc2ccc(Br)cn2)nc1C`, 802 s.
With `COc1ccc(-c2ccnc3nc(-c4ccccc4)nn23)cc1OC` the figure was 848 s.

For the origin of these results see the METLIN SMRT retention time set (Domingo-Almenara et al. 2019).
